According to patent US20230173018A1, “CASPOFUNGIN DERIVATIVES AND ASSAYS FOR EVALUATING ANTIFUNGAL TREATMENT EFFICACY” (priority 2020, published 2023):
Converted amounts (≈) assume the structure as drawn. Like-named read-outs stand apart in the source and are kept apart here.

Key:
Assay type in all cases: cell-based
C. albicans CAF2-1 = assay: microbe, parasite or virus in culture
How it was run: (§1)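 Tested organisms were a 49-strain C. albicans/C. glabrata panel mixing ATCC and clinical isolates with isogenic FKS1 and/or FKS2 point-mutant, caspofungin-resistant derivatives. Potency is given as the MIC from broth double dilution.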

C. albicans CG72 = assay: microbe, parasite or virus in culture; details: strain no. 7, CG72, parental CAM, pKE1:GFP-YPT72
How it was run: as §1

[1] = test system: C. albicans DPL1016 (DP-A15-10); assay: microbe, parasite or virus in culture
How it was run: as §1

[2] = test system: C. albicans T-2069 (DP-85); assay: microbe, parasite or virus in culture
How it was run: as §1

[3] = test system: C. albicans T-2074 (DP-122); assay: microbe, parasite or virus in culture
How it was run: as §1

[4] = test system: C. albicans T-2076 (DP-194); assay: microbe, parasite or virus in culture
How it was run: as §1

[5] = test system: C. albicans T-2077 (DP-205); assay: microbe, parasite or virus in culture
How it was run: as §1

C. glabrata CST78 = assay: microbe, parasite or virus in culture; details: strain no. 26, C. glabrata CST78
How it was run: as §1

C. glabrata DPL1086 = assay: microbe, parasite or virus in culture
How it was run: as §1

[6] = test system: C. glabrata T-985 (11-076); assay: microbe, parasite or virus in culture; details: strain no. 49, T-985 (11-076), clinical isolate
How it was run: as §1

C. glabrata TGL00054 = assay: microbe, parasite or virus in culture
How it was run: as §1

C. glabrata TGL00056 = assay: microbe, parasite or virus in culture
How it was run: as §1

C. glabrata TGL00065 = assay: microbe, parasite or virus in culture
How it was run: as §1

C. glabrata TGL00107 = assay: microbe, parasite or virus in culture
How it was run: as §1

C. glabrata TGL00265 = assay: microbe, parasite or virus in culture
How it was run: as §1

C. glabrata TGL00291 = assay: microbe, parasite or virus in culture
How it was run: as §1

[7] = test system: C. albicans SC5314 and SN152; assay: Competition for cellular uptake with probe 1, flow cytometry; details: added simultaneously with probe 1; caspofungin 1 μM, 10 μM; fluconazole 10 μM
Description: To determine if caspofungin competes for cellular uptake with fluorescent probe 1, both the drug and the probe were added simultaneously to cultures of strains SC5314 and SN152. The uptake of probe 1 was measured by flow cytometry every 15 minutes for 1 hour (FIG. 6B). […] No effect on the uptake of probe 1 was detected in cells co-treated with the antifungal azole drug fluconazole, which inhibits the biosynthesis of fungal membrane sterol, ergosterol.

C. albicans SC5314 cells = assay: Cell viability by propidium iodide (PI) staining, PBS vs YPAD; details: 1 μM
Description: To determine whether the caspofungin relocalization and apparent cell damage and death is a feature of caspofungin (and not only of the fluorescent caspofungin probe 1), cell viability was followed using propidium iodide (PI), a dye normally excluded from metabolically active cells.
Cell viability was compared in the presence and absence of 1 μM unlabeled caspofungin, using cells incubated either in PBS or in YPAD. […] Thus, cells exposed to caspofungin in nutrient-rich conditions become permeable to PI, an indicator of cell death. This observation explains the non-specific distribution of probe 1 in the cytoplasm after prolonged incubation (FIG. 7A). It is also consistent with the idea that plasma membrane permeabilization and cell death are likely accompanied by the loss of structural integrity of organelles, including the vacuoles detected here.

[8] = test system: panel of 49 C. albicans and C. glabrata strains; assay: Antifungal activity (MIC) compared to caspofungin over the panel
Source text: The antifungal activities of compounds 1a, 1 and 2 (collectively: caspofungin derivatives) were compared to that of caspofungin and CSF-BOD using a panel of 49 C. albicans and C. glabrata strains (Tables 1 and 2). The panel included ATCC strains and clinical isolates as well a collection of caspofungin-responsive strains and their corresponding isogenic caspofungin-resistant derivatives, constructed by introducing point mutations within and near the defined hotspots in the FKS1 and/or FKS2 genes of the GS complex. […] MIC values were determined using the broth double-dilution method. The clinical breakpoints (threshold) for caspofungin-resistance in C. albicans and C. glabrata are 1 μg/mL and 0.5 μg/mL, respectively. […]

[9] = Nakaseomyces glabratus, read-out: MIC

For `CC[C@H](C)C[C@H](C)CCCCCCCCC(=O)N[C@H]1C[C@@H](O)[C@@H](NCCN)NC(=O)[C@@H]2[C@@H](O)CCN2C(=O)[C@H]([C@H](O)CCN)NC(=O)[C@H]([C@H](O)[C@@H](O)c2ccc(O)cc2)NC(=O)[C@@H]2C[C@@H](O)CN2C(=O)[C@H]([C@@H](C)O)NC1=O` [Caspofungin], the MIC (C. albicans CAF2-1; Candida albicans, SC5314) was 0.063 µg/mL (≈ 0.0576 µM), the MIC (C. albicans CG72; Candida albicans, read-out: MIC) was 0.031 µg/mL (≈ 0.0284 µM) and the MIC ([1]; Candida albicans, SC5314) was 16 µg/mL (≈ 14.6 µM). The MIC ([2]; Candida albicans) was 16 µg/mL (≈ 14.6 µM), the MIC ([3]; Candida albicans) was 1 µg/mL (≈ 0.915 µM) and the MIC ([4]; Candida albicans) was 2 µg/mL (≈ 1.83 µM). For the same compound, the MIC ([5]; Candida albicans) was over 64 µg/mL, the MIC (C. glabrata CST78; [9]) was 0.125 µg/mL (≈ 0.114 µM) and the MIC (C. glabrata DPL1086; Nakaseomyces glabratus, ATCC90030) was 2 µg/mL (≈ 1.83 µM). For the same compound, the MIC [6, 9] was 0.125 µg/mL (≈ 0.114 µM), the MIC (C. glabrata TGL00054; Nakaseomyces glabratus, TGL00054) was over 64 µg/mL and the MIC (C. glabrata TGL00056; Nakaseomyces glabratus, TGL00056) was over 64 µg/mL. The MIC (C. glabrata TGL00065; Nakaseomyces glabratus, TGL00065) was over 64 µg/mL, the MIC (C. glabrata TGL00107; Nakaseomyces glabratus, TGL00107) was over 64 µg/mL and the MIC (C. glabrata TGL00265; Nakaseomyces glabratus, TGL00265) was over 64 µg/mL. The MIC (C. glabrata TGL00291; Nakaseomyces glabratus, TGL00291) was over 64 µg/mL, the “effect on the uptake of probe 1” value [7] was “reduced the uptake of probe 1 in a dose-dependent manner” and the “cell viability, PI staining” value (C. albicans SC5314 cells; PBS) was “cells excluded the PI stain”. For the same compound, the “cell viability, PI staining” value (C. albicans SC5314 cells; YPAD, after 15 min) was “viable” and the “cell viability, PI staining” value (C. albicans SC5314 cells; YPAD, after 2 h) was “stained brightly with PI”.

With `CC[C@H](C)C[C@H](C)CCCCCCCCC(=O)N[C@H]1C[C@@H](O)[C@@H](NCCN)NC(=O)[C@@H]2[C@@H](O)CCN2C(=O)[C@H]([C@H](O)CCN)NC(=O)[C@H]([C@H](O)[C@@H](O)c2ccc(OCc3cn(CCCNC(=O)c4ccc(-c5c6ccc(=[N+](C)C)cc-6oc6cc(N(C)C)ccc56)c(C(=O)[O-])c4)nn3)cc2)NC(=O)[C@@H]2C[C@@H](O)CN2C(=O)[C@H]([C@@H](C)O)NC1=O` [Compound 1] the MIC (C. albicans CAF2-1; strain no. 10, CAF2-1, parental SC5314) was 0.5 µg/mL (≈ 0.304 µM), the MIC (C. albicans CG72) was 0.5 µg/mL (≈ 0.304 µM) and the MIC ([1]; strain no. 3, DPL1016 (DP-A15-10), parental SC5314, FKS1 mutant HS1-S645P) was 64 µg/mL (≈ 38.9 µM). The MIC ([2]; strain no. 14, T-2069 (DP-85), clinical isolate, FKS1 HS1-S645F mutation) was 64 µg/mL (≈ 38.9 µM), the MIC ([3]; strain no. 12, T-2074 (DP-122), clinical isolate, FKS1 HS1-P649H mutation) was 16 µg/mL (≈ 9.73 µM) and the MIC ([4]; strain no. 13, T-2076 (DP-194), clinical isolate, FKS1 HS1-S645F, HS2-R1361R/H mutation) was 32 µg/mL (≈ 19.5 µM). The MIC ([5]; strain no. 15, T-2077 (DP-205), clinical isolate, FKS1 HS1-S645P mutation) was over 64 µg/mL, the MIC (C. glabrata CST78) was 1 µg/mL (≈ 0.608 µM) and the MIC (C. glabrata DPL1086; strain no. 17, DPL1086, parental ATCC 90030, FKS1 mutant HS1-S629P) was 8 µg/mL (≈ 4.87 µM). For the same compound, the MIC [6] was 1 µg/mL (≈ 0.608 µM), the MIC (C. glabrata TGL00054; strain no. 19, TGL00054, parental CST109, FKS2 mutant) was over 64 µg/mL and the MIC (C. glabrata TGL00056; strain no. 22, TGL00056, parental CST34, FKS mutant) was over 64 µg/mL. It also gave an MIC (C. glabrata TGL00065; strain no. 27, TGL00065, FKS mutant) of over 64 µg/mL, an MIC (C. glabrata TGL00107; strain no. 23, TGL00107, parental CST34, FKS mutant) of over 64 µg/mL and an MIC (C. glabrata TGL00265; strain no. 30, TGL00265, parental CST78, FKS mutant) of over 64 µg/mL. The MIC (C. glabrata TGL00291; strain no. 36, TGL00291, parental BG2, FKS mutant) was over 64 µg/mL, the “antifungal activity based on MIC values” ([8]; panel of 49 strains) was “retained antifungal activities” and the “MIC values higher than the parent caspofungin” value ([8]; ratio to caspofungin MIC, FIG. 2, Table 2) was 4-16. For the same compound, the antifungal activity spectrum ([8]; resistant vs responsive strains of the panel) was “identical to that of caspofungin”.
